According to patent publication US6365590B1, “Compounds, compositions and methods for treating erectile dysfunction” (Saint Louis University, priority 1998, dated 2002):
Counter-ions that a name gives are not always drawn.

What was measured:
[1] = concentrations up to 20%; cited from earlier work
[2] = pH of a 10 mM aqueous solution of the compound; type: physicochemical; settings: 22° C.
sperm = settings: cited from earlier work

Compound | pH of a 10 mM aqueous solution [2] | effect on the viability of sperm (sperm) | also measured
COc1ccc(Cc2nccc3cc(OC)c(OC)cc23)cc1OC [papaverine] | – | – | effectiveness as a topical agent in erectile dysfunction [1]: not sufficiently effective for clinical use
CCCCCC(O)C=CC1C(O)CC(=O)C1CCCCCCC(=O)O.COc1cc2nc(N3CCN(C(=O)c4ccco4)CC3)nc(N)c2cc1OC [prazosin alprostadilate] | 6.32-6.38 | – | –
CCCCC[C@H](O)/C=C/[C@H]1[C@H](O)CC(=O)[C@@H]1CCCCCCC(=O)O.CCN(CC)CC(=O)Nc1c(C)cccc1C [lidocaine alprostadilate] | 6.29-6.36 | – | –
CCCCC[C@H](O)/C=C/[C@H]1[C@H](O)CC(=O)[C@@H]1CCCCCCC(=O)O [alprostadil] | – | no effect | –
COc1cc2nc(N3CCN(C(=O)c4ccco4)CC3)nc(N)c2cc1OC [prazosin hydrochloride] | – | no effect | –
